Measurements taken from patent EP0048614B1, “1-N-acylated and 1-N-alkylated derivatives of 4-0-substituted -2-deoxystreptamine aminoglycosides” (ELI LILLY AND COMPANY, priority 1980, dated 1982).
Values after ≈ are worked out from the molar mass of the structure shown.

Columns and labels:
[1] = tested on: Bordetella bronchiseptica 16; assay: MIC, standard agar dilution test; format: cell-based; settings: Bordetella bronchiseptica, 16, read-out: Minimum Inhibitory Concentration
From the text: (§1) The antibacterial activity of the deprotected compounds of this invention is illustrated by the following in vitro and in vivo test data obtained with representative compounds. In Table I, the minimum inhibitory concentration (MIC) for representative compounds against a wide range of gram-positive and gram-negative bacteria is presented. The MIC values were obtained by the standard agar dilution test.

[2] = tested on: Citrobacter freundii CF17; assay: MIC, standard agar dilution test; format: cell-based; settings: Citrobacter freundii, CF17, read-out: Minimum Inhibitory Concentration
From the text: as §1

[3] = tested on: Enterobacter aerogenes C32; assay: MIC, standard agar dilution test; format: cell-based; settings: Klebsiella aerogenes, C32, read-out: Minimum Inhibitory Concentration
From the text: as §1

[4] = tested on: Enterobacter aerogenes EB17; assay: MIC, standard agar dilution test; format: cell-based; settings: Klebsiella aerogenes, EB17, read-out: Minimum Inhibitory Concentration
From the text: as §1

[5] = tested on: Enterobacter aerogenes X68; assay: MIC, standard agar dilution test; format: cell-based; settings: Klebsiella aerogenes, X68, read-out: Minimum Inhibitory Concentration, Enterobacter aerogenes X68
From the text: as §1

[6] = tested on: Enterobacter cloacae 265A; assay: MIC, standard agar dilution test; format: cell-based; settings: Enterobacter cloacae, 265A, read-out: Minimum Inhibitory Concentration
From the text: as §1

Enterobacter cloacae EB5 = assay: MIC, standard agar dilution test; format: cell-based; settings: Enterobacter cloacae, EB5, read-out: Minimum Inhibitory Concentration
From the text: as §1

Escherichia coli EC14 = assay: MIC, standard agar dilution test; format: cell-based; settings: Escherichia coli EC14; agar dilution; read-out: Minimum Inhibitory Concentration
From the text: as §1

Escherichia coli N10 = assay: MIC, standard agar dilution test; format: cell-based; settings: Escherichia coli, N10, Escherichia coli N10; agar dilution; read-out: Minimum Inhibitory Concentration
From the text: as §1

Escherichia coli TEM = assay: MIC, standard agar dilution test; format: cell-based; settings: read-out: Minimum Inhibitory Concentration
From the text: as §1

Hemophilus influenzae 76 = assay: MIC, standard agar dilution test; format: cell-based; settings: Haemophilus influenzae, 76, read-out: Minimum Inhibitory Concentration, Hemophilus influenzae 76
From the text: as §1

[7] = tested on: Hemophilus influenzae C.L.; assay: MIC, standard agar dilution test; format: cell-based; settings: Haemophilus influenzae, read-out: Minimum Inhibitory Concentration, Hemophilus influenzae C.L.
From the text: as §1

[8] = tested on: Klebsiella pneumoniae KAE; assay: MIC, standard agar dilution test; format: cell-based; settings: Klebsiella pneumoniae, read-out: Minimum Inhibitory Concentration
From the text: as §1

[9] = tested on: Klebsiella pneumoniae X26; assay: MIC, standard agar dilution test; format: cell-based; settings: Klebsiella pneumoniae, X26, read-out: Minimum Inhibitory Concentration
From the text: as §1

Proteus inconstans PR33 = assay: MIC, standard agar dilution test; format: cell-based; settings: Providencia alcalifaciens, PR33, read-out: Minimum Inhibitory Concentration
From the text: as §1

Proteus morganii PR15 = assay: MIC, standard agar dilution test; format: cell-based; settings: Morganella morganii, PR15, read-out: Minimum Inhibitory Concentration
From the text: as §1

Proteus rettgeri C24 = assay: MIC, standard agar dilution test; format: cell-based; settings: Providencia rettgeri, C24, read-out: Minimum Inhibitory Concentration
From the text: as §1

Proteus rettgeri PR7 = assay: MIC, standard agar dilution test; format: cell-based; settings: Providencia rettgeri, PR7, read-out: Minimum Inhibitory Concentration, Proteus rettgeri PR7
From the text: as §1

[10] = tested on: Pseudomonas aeruginosa Ps18; assay: MIC, standard agar dilution test; format: cell-based; settings: Pseudomonas aeruginosa, PS18, read-out: Minimum Inhibitory Concentration
From the text: as §1

[11] = tested on: Pseudomonas aeruginosa X239; assay: MIC, standard agar dilution test; format: cell-based; settings: Pseudomonas aeruginosa, X239, read-out: Minimum Inhibitory Concentration
From the text: as §1

[12] = tested on: Pseudomonas aeruginosa X528; assay: MIC, standard agar dilution test; format: cell-based; settings: Pseudomonas aeruginosa, X528, read-out: Minimum Inhibitory Concentration
From the text: as §1

[13] = tested on: Salmonella heidelberg X514; assay: MIC, standard agar dilution test; format: cell-based; settings: Salmonella enterica, X514, read-out: Minimum Inhibitory Concentration
From the text: as §1

[14] = tested on: Salmonella typhimurium 1335; assay: MIC, standard agar dilution test; format: cell-based; settings: Salmonella enterica, TYPHIMURIUM, read-out: Minimum Inhibitory Concentration
From the text: as §1

Serratia marcescens SE3 = assay: MIC, standard agar dilution test; format: cell-based; settings: Serratia marcescens, SE3, read-out: Minimum Inhibitory Concentration
From the text: as §1

Serratia marcescens X99 = assay: MIC, standard agar dilution test; format: cell-based; settings: Serratia marcescens, X99, read-out: Minimum Inhibitory Concentration, Serratia marcescens X99
From the text: as §1

Shigella sonnei N9 = assay: MIC, standard agar dilution test; format: cell-based; settings: read-out: Minimum Inhibitory Concentration
From the text: as §1

[15] = tested on: Staphylococcus aureus S13E; assay: MIC, standard agar dilution test; format: cell-based; settings: read-out: Minimum Inhibitory Concentration
From the text: as §1

[16] = tested on: Staphylococcus aureus V41; assay: MIC, standard agar dilution test; format: cell-based; settings: Staphylococcus aureus, V41, read-out: Minimum Inhibitory Concentration
From the text: as §1

[17] = tested on: Staphylococcus aureus X1.1; assay: MIC, standard agar dilution test; format: cell-based; settings: Staphylococcus aureus, X1.1, read-out: Minimum Inhibitory Concentration
From the text: as §1

[18] = tested on: Staphylococcus aureus X400; assay: MIC, standard agar dilution test; format: cell-based; settings: Staphylococcus aureus, X400, read-out: Minimum Inhibitory Concentration, Staphylococcus aureus X400
From the text: as §1

[19] = tested on: Staphylococcus epidermidis EPI1; assay: MIC, standard agar dilution test; format: cell-based; settings: Staphylococcus epidermidis, EPI1; read-out: Minimum Inhibitory Concentration
From the text: as §1

[20] = tested on: Staphylococcus epidermidis EPI2; assay: MIC, standard agar dilution test; format: cell-based; settings: Staphylococcus epidermidis, EPI2, read-out: Minimum Inhibitory Concentration
From the text: as §1

[21] = tested on: Streptococcus group D 9960; assay: MIC, standard agar dilution test; format: cell-based; settings: D9960, read-out: Minimum Inhibitory Concentration
From the text: as §1

[22] = tested on: Streptococcus group D X66; assay: MIC, standard agar dilution test; format: cell-based; settings: DX66, read-out: Minimum Inhibitory Concentration
From the text: as §1

[23] = tested on: Streptococcus pneumoniae Park I; assay: MIC, standard agar dilution test; format: cell-based; settings: Streptococcus pneumoniae; read-out: Minimum Inhibitory Concentration
From the text: as §1

[24] = tested on: Streptococcus pyogenes C203; assay: MIC, standard agar dilution test; format: cell-based; settings: Streptococcus pyogenes, C203, read-out: Minimum Inhibitory Concentration
From the text: as §1

[25] = tested on: Staphylococcus aureus 3055; assay: Subcutaneous therapy of experimental bacterial infection in mice (ED50); format: in vivo; settings: Staphylococcus aureus, 3055, sc, read-out: Effective Dose (ED50), mg/kg × 2 subcutaneous doses at 1 and 5 hours post infection; mice challenged with 68.1 LD50's
Description: Table II illustrates the effective dose (ED50, the effective dose to protect 50 percent of the test animals) for representative compounds of this invention against an experimental bacterial infection in mice.
The ED50 values were determined as described by W. E. Wick et al., Journal of Bacteriology, 81 [No. 2], 233-235 (1961).

Escherichia coli X563 = assay: Standard disc-plate method, zone of inhibition against apramycin-resistant strain; format: cell-based; settings: apramycin-resistant E. coli X563, one value for each of two test runs per compound
From the text: Table III, shown below, illustrates the in vitro activity of 1-N-(S-y-amino-a-hydroxybutyryl)apramycin, 1-N-(RS-y-amino-a-hydroxybutyryl)apramycin, and 1-N-(S-y-amino-a-hydroxybutyryl)nebramine against an apramycin resistant strain of E. coli. The results below were obtained using the standard disc-plate method. The numerical values are the diameters in millimeters of the zones of inhibition observed against this bacterium. Compounds substituted with the y-amino-a-hydroxybutyryl and analogous side chains are useful in treating infections caused by apramycin resistant bacteria such as the one above.
The test organism (E. coli X563) used in the experiments summarized in Table III is resistant to apramycin due to a 3-N-acetyltransferase which enzymatically inactivates apramycin.

In the case of `CNC1C(OC2OC(CO)C(N)C(O)C2O)OC2CC(N)C(OC3C(N)CC(NC(=O)C(O)CCN)C(O)C3O)OC2C1O` (stereo not drawn) [Test Compound 1, 1-N-(S-γ-amino-α-hydroxybutyryl)apramycin], the MIC [1] is reported as 64 µg/mL (≈ 99.9 µM), the MIC [2] is reported as 16 µg/mL (≈ 25 µM) and the MIC [3] is reported as 8 µg/mL (≈ 12.5 µM). It also gave an MIC [4] of 16 µg/mL (≈ 25 µM), an MIC [5] of 8 µg/mL (≈ 12.5 µM) and an MIC [6] of 32 µg/mL (≈ 49.9 µM). For the same compound, the MIC (Enterobacter cloacae EB5) was 16 µg/mL (≈ 25 µM), the MIC (Escherichia coli EC14) was 16 µg/mL (≈ 25 µM) and the MIC (Escherichia coli N10) was 8 µg/mL (≈ 12.5 µM). For the same compound, the MIC (Escherichia coli TEM) was 4 µg/mL (≈ 6.24 µM), the MIC (Hemophilus influenzae 76) was 16 µg/mL (≈ 25 µM) and the MIC [7] was 16 µg/mL (≈ 25 µM). The MIC [8] was 16 µg/mL (≈ 25 µM), the MIC [9] was 8 µg/mL (≈ 12.5 µM) and the MIC (Proteus inconstans PR33) was 8 µg/mL (≈ 12.5 µM). For the same compound, the MIC (Proteus morganii PR15) was 128 µg/mL (≈ 200 µM), the MIC (Proteus rettgeri C24) was 8 µg/mL (≈ 12.5 µM) and the MIC (Proteus rettgeri PR7) was 8 µg/mL (≈ 12.5 µM). It also gave an MIC [10] of 128 µg/mL (≈ 200 µM), an MIC [11] of 64 µg/mL (≈ 99.9 µM) and an MIC [12] of 64 µg/mL (≈ 99.9 µM). The MIC [13] was 16 µg/mL (≈ 25 µM), the MIC [14] was 16 µg/mL (≈ 25 µM) and the MIC (Serratia marcescens SE3) was 16 µg/mL (≈ 25 µM). For the same compound, the MIC (Serratia marcescens X99) was 8 µg/mL (≈ 12.5 µM), the MIC (Shigella sonnei N9) was 16 µg/mL (≈ 25 µM) and the MIC [15] was 16 µg/mL (≈ 25 µM). For the same compound, the MIC [16] was 16 µg/mL (≈ 25 µM), the MIC [17] was 8 µg/mL (≈ 12.5 µM) and the MIC [18] was 32 µg/mL (≈ 49.9 µM). For the same compound, the MIC [19] was 8 µg/mL (≈ 12.5 µM), the MIC [20] was 4 µg/mL (≈ 6.24 µM) and the MIC [21] was > 128 µg/mL. For the same compound, the MIC [22] was > 128 µg/mL, the MIC [23] was 64 µg/mL (≈ 99.9 µM) and the MIC [24] was 64 µg/mL (≈ 99.9 µM). For the same compound, the ED50 [25] was < 4.35 mg/kg, the “Zone of Inhibition (diameter in mm)” value (Escherichia coli X563; 15 mcg/disc, listed as 1) was 14.7 mm and the zone of inhibition at 15 µg/disc (Escherichia coli X563; Escherichia coli, X563, read-out: Zone of Inhibition (diameter in mm), 15 mcg/disc) was 12.4 mm.
